Tested on: active oxygen responsive calcium channel (TPC1 channel) of tobacco BY-2 cells
Test: aequorin luminescence of tobacco BY-2 culture cells after adding reaction water (evaluation of redox activity)
Type: cell-based
Settings: for suppression of the aequorin luminescence reaction induced by water containing active oxygen species: agent added to the reaction, FIG. 11
Excerpt: In a living organism, Ca^2+ is a signal-transmitting substance which becomes a key in an information transmission path which controls metabolism and gene expression. Usually, a concentration of cytoplasm free calcium ion (hereinafter abbreviated as [Ca^2+]cyt) in live cell is maintained at low concentration and with a difference of 10^6 to 10^7 times compared to extracellular cytoplasm free calcium ion. On a cell membranes of living organisms including plants, calcium channels which constitute calcium inflow paths which are activated and open in response to a specific stimulus exist. The presence of most of calcium channels is elucidated at a gene level or at a protein level. […] As a method of nondestructively measuring the behavior of Ca^2+ in the cell, particularly, a change of [Ca^2+]cyt, a method of monitoring the change of [Ca^2+]cyt in response to various stimulations using cells to which gene of aequorin which is Ca^2+ responsive photoprotein derived from Aequorea Victoria is established. Due to this method, it is possible to monitor the change of [Ca^2+]cyt real time by observing bioluminescence. Accordingly, it is possible to determine whether or not water is turned into water having redox reaction in which the redox action is actually generated and the intracellular response is brought about. […] By evaluating effect of addition of aluminum as an ion channel blocker and effects of an active oxygen removing agent, it is possible to determine whether or not a specific active oxygen responsive calcium channel is stimulated (Kawano, T., Kadono, T., Fumoto, […]., Kuse, M. Isobe, M. Furuichi, T. and Muto, S. (2004) Aluminum as a specific inhibitor of plant TPC1 Ca^2+ channels. Biochemical and Biophysical Research Communications 324 (1): 40-45). Accordingly, by using the experimental system, it is possible to evaluate whether or not active oxygen species are present at a level where active oxygen species can stimulate calcium information transmission which is a key of various physiological action including the cell death or the gene expression in the plant cell. […] 100 ml of water having redox activity is added to 500 ml of suspension of cells in which aequorin is expressed (1:5 mixture, 600 ml in total), and CLA chemiluminescence and aequorin luminescence are measured. The luminescence intensity is marked as relative luminescence intensity (rlu). […]

SMILES | suppression of the aequorin luminescence reaction induced by water containing active oxygen species | concentration of superoxide anion radicals needed for water to have redox activity (intracellular response) (comparison of dissolved oxygen 8 mg/L and 30 mg/L samples, UV plus ultrasonic vibrations, FIG. 12)
[Al+3] [Al^3+] | suppressed | –
[La+3] [La^3+] | suppressed | –
O=S(=O)(O)c1cc(O)c(O)c(S(=O)(=O)O)c1 [Tiron] | suppressed | –
[O]O [superoxide anion radicals] | – | at least 5 mM

From US8889075B2, “Apparatus for producing water having redox activity” (Kitakyushu Foundation for the Advancement of Industry, …, priority 2007, dated 2014)
